This is an account of results in the supplement of paper PMC10307832.

What all share (test): relative viability (nuclei count vs DMSO), 5 days (fraction); higher = more cells survive
Compound in assay [1]: CN1CCN(CC1)C2=CC(=C(C=C2)NC3=NC(=C(S3)C(=O)C4=C(C=CC=C4Cl)Cl)N)OC [XMD14-99] + O=C(c1cc(Cc2n[nH]c(=O)c3ccccc23)ccc1F)N1CCN(C(=O)C2CC2)CC1 [Olaparib] (partner 8 µM)
An outline of the steps: (§1)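 Relative viability divides the nuclei count in treated wells by that in vehicle wells. Lung cancer cell lines were seeded in 1536-well plates, dosed by pin tool the next day, and fixed and stained after 5 days in one step with final 0.05% Triton X-100, 1% formaldehyde and 1 ug/ml Hoechst. Dosing was a single drug or a fixed anchor-drug dose plus five library-drug doses (not always all listed) in √10 steps, and values are medians of duplicate plates imaged at 4×.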

Compound in assay [2]: N[C@@H]1CCCN(c2c(/C=C3\SC(=O)NC3=O)cccc2-c2ccccc2)C1 [AZD1208] + C[C@]1(O)C[C@@H](c2nc(-c3ccc4ccc(-c5ccccc5)nc4c3)c3c(N)nccn32)C1 [Linsitinib] (partner 1 µM)
The method in brief: as §1

Compound in assay [3]: N[C@@H]1CCCN(c2c(/C=C3\SC(=O)NC3=O)cccc2-c2ccccc2)C1 [AZD1208] + Nc1ncn([C@H]2C[C@H](O)[C@@H](CO)O2)c(=O)n1 [Decitabine] (partner 2 µM)
An outline of the steps: as §1

Compound in assay [4]: CN1CCN(CC1)C2=CC(=C(C=C2)NC3=NC(=C(S3)C(=O)C4=C(C=CC=C4Cl)Cl)N)OC [XMD14-99] + CCNC(=O)c1noc(-c2cc(C(C)C)c(O)cc2O)c1-c1ccc(CN2CCOCC2)cc1 [Luminespib] (partner 0.01 µM)
The method in brief: as §1

NCI-H2405: the relative viability in assay [1] (first compound 0.08 µM) worked out at 0.839; in assay [1] (first compound 0.8 µM), 0.918; in assay [1] (first compound 2.53 µM), 0.758; in assay [1] (first compound 8 µM) it was 0.723; in assay [2] (first compound 0.08 µM) it was 0.8; in assay [2] (first compound 0.253 µM), 0.789. In addition, the relative viability in assay [2] (first compound 0.8 µM) came out at 0.737; in assay [2] (first compound 2.53 µM), 0.883; in assay [2] (first compound 8 µM), 0.853; in assay [3] (first compound 0.08 µM), 0.683; in assay [3] (first compound 0.253 µM), 0.752; in assay [3] (first compound 0.8 µM), 0.695. Besides, the relative viability in assay [3] (first compound 2.53 µM) is 0.719; in assay [3] (first compound 8 µM), 0.653; in assay [4] (first compound 0.08 µM) it was 0.659; in assay [4] (first compound 0.8 µM), 0.767; in assay [4] (first compound 2.53 µM), 0.861; in assay [4] (first compound 8 µM) it was 0.475.
Turning to NCI-H3122, the relative viability in assay [1] (first compound 0.08 µM) came out at 0.671; in assay [1] (first compound 0.8 µM), 0.682; in assay [1] (first compound 2.53 µM), 0.62; in assay [1] (first compound 8 µM) it was 0.441; in assay [2] (first compound 0.08 µM) it was 1.09; in assay [2] (first compound 0.253 µM) it was 1.03. The relative viability worked out at 1.03 in assay [2] (first compound 0.8 µM); 1.02 in assay [2] (first compound 2.53 µM); 1.08 in assay [2] (first compound 8 µM); 0.457 in assay [3] (first compound 0.08 µM); 0.362 in assay [3] (first compound 0.253 µM); 0.351 in assay [3] (first compound 0.8 µM). Besides, the relative viability in assay [3] (first compound 2.53 µM) amounted to 0.431; in assay [3] (first compound 8 µM), 0.315; in assay [4] (first compound 0.08 µM), 0.0829; in assay [4] (first compound 0.8 µM) it was 0.0788; in assay [4] (first compound 2.53 µM), 0.132; in assay [4] (first compound 8 µM), 0.0985.
Turning to PC-3 [JPC-3], the relative viability in assay [1] (first compound 0.08 µM) came out at 1.09; in assay [1] (first compound 0.8 µM), 1.1; in assay [1] (first compound 2.53 µM) it was 1.16; in assay [1] (first compound 8 µM), 0.733; in assay [2] (first compound 0.08 µM) it was 1.05; in assay [2] (first compound 0.253 µM) it was 1.01. In addition, the relative viability in assay [2] (first compound 0.8 µM) was found to be 1.02; in assay [2] (first compound 2.53 µM), 1.06; in assay [2] (first compound 8 µM), 1; in assay [3] (first compound 0.08 µM) it was 0.81; in assay [3] (first compound 0.253 µM), 0.932; in assay [3] (first compound 0.8 µM), 0.751. In addition, the relative viability stood at 0.887 in assay [3] (first compound 2.53 µM); 0.81 in assay [3] (first compound 8 µM); 0.682 in assay [4] (first compound 0.08 µM); 0.66 in assay [4] (first compound 0.8 µM); 0.564 in assay [4] (first compound 2.53 µM); 0.588 in assay [4] (first compound 8 µM).
Take PC-14: the relative viability is 0.276 in assay [1] (first compound 0.08 µM); 0.248 in assay [1] (first compound 0.8 µM); 0.164 in assay [1] (first compound 2.53 µM); 0.0816 in assay [1] (first compound 8 µM); 0.942 in assay [2] (first compound 0.08 µM); 1.12 in assay [2] (first compound 0.253 µM). Further, the relative viability in assay [2] (first compound 0.8 µM) worked out at 0.977; in assay [2] (first compound 2.53 µM) it was 1; in assay [2] (first compound 8 µM) it was 0.914; in assay [3] (first compound 0.08 µM), 0.254; in assay [3] (first compound 0.253 µM), 0.209; in assay [3] (first compound 0.8 µM), 0.224. The relative viability in assay [3] (first compound 2.53 µM) came out at 0.203; in assay [3] (first compound 8 µM), 0.207; in assay [4] (first compound 0.08 µM), 0.156; in assay [4] (first compound 0.8 µM) it was 0.151; in assay [4] (first compound 2.53 µM), 0.156; in assay [4] (first compound 8 µM), 0.171.
Turning to RERF-LC-KJ, the relative viability in assay [1] (first compound 0.08 µM) was 0.986; in assay [1] (first compound 0.8 µM), 0.856; in assay [1] (first compound 2.53 µM), 0.882; in assay [1] (first compound 8 µM) it was 0.648; in assay [2] (first compound 0.08 µM), 0.892; in assay [2] (first compound 0.253 µM), 0.883. The relative viability in assay [2] (first compound 0.8 µM) is 0.815; in assay [2] (first compound 2.53 µM) it was 0.794; in assay [2] (first compound 8 µM) it was 0.702; in assay [3] (first compound 0.08 µM), 0.66; in assay [3] (first compound 0.253 µM) it was 0.674; in assay [3] (first compound 0.8 µM), 0.632. For the same cell line, the relative viability in assay [3] (first compound 2.53 µM) came out at 0.586; in assay [3] (first compound 8 µM), 0.555; in assay [4] (first compound 0.08 µM), 1.26; in assay [4] (first compound 0.8 µM) it was 1.13; in assay [4] (first compound 2.53 µM) it was 1.05; in assay [4] (first compound 8 µM) it was 0.822.
With SK-LU-1, the relative viability in assay [1] (first compound 0.08 µM) is 0.423; in assay [1] (first compound 0.8 µM), 0.459; in assay [1] (first compound 2.53 µM), 0.374; in assay [1] (first compound 8 µM), 0.34; in assay [2] (first compound 0.08 µM) it was 1; in assay [2] (first compound 0.253 µM), 1.21. For the same cell line, the relative viability was 1.07 in assay [2] (first compound 0.8 µM); 1.21 in assay [2] (first compound 2.53 µM); 0.795 in assay [2] (first compound 8 µM); 0.586 in assay [3] (first compound 0.08 µM); 0.621 in assay [3] (first compound 0.253 µM); 0.629 in assay [3] (first compound 0.8 µM). Moreover, the relative viability was 0.622 in assay [3] (first compound 2.53 µM); 0.511 in assay [3] (first compound 8 µM); 0.197 in assay [4] (first compound 0.08 µM); 0.201 in assay [4] (first compound 0.8 µM); 0.235 in assay [4] (first compound 2.53 µM); 0.184 in assay [4] (first compound 8 µM).
With SK-MES-1, the relative viability in assay [1] (first compound 0.08 µM) was found to be 0.658; in assay [1] (first compound 0.8 µM), 0.689; in assay [1] (first compound 2.53 µM), 0.576; in assay [1] (first compound 8 µM), 0.32; in assay [2] (first compound 0.08 µM), 1.01; in assay [2] (first compound 0.253 µM), 1.02. In addition, the relative viability in assay [2] (first compound 0.8 µM) was 1.06; in assay [2] (first compound 2.53 µM), 1.04; in assay [2] (first compound 8 µM), 0.969; in assay [3] (first compound 0.08 µM) it was 0.373; in assay [3] (first compound 0.253 µM), 0.352; in assay [3] (first compound 0.8 µM), 0.33. Further, the relative viability in assay [3] (first compound 2.53 µM) is 0.364; in assay [3] (first compound 8 µM), 0.301; in assay [4] (first compound 0.08 µM), 0.786; in assay [4] (first compound 0.8 µM) it was 0.73; in assay [4] (first compound 2.53 µM) it was 0.729; in assay [4] (first compound 8 µM), 0.566.
For SW 1573, the relative viability in assay [1] (first compound 0.08 µM) is 0.445; in assay [1] (first compound 0.8 µM), 0.457; in assay [1] (first compound 2.53 µM) it was 0.488; in assay [1] (first compound 8 µM), 0.308; in assay [2] (first compound 0.08 µM), 0.725; in assay [2] (first compound 0.253 µM), 0.637. Moreover, the relative viability in assay [2] (first compound 0.8 µM) was 0.745; in assay [2] (first compound 2.53 µM) it was 0.656; in assay [2] (first compound 8 µM), 0.534; in assay [3] (first compound 0.08 µM), 0.465; in assay [3] (first compound 0.253 µM) it was 0.417; in assay [3] (first compound 0.8 µM), 0.457. Moreover, the relative viability in assay [3] (first compound 2.53 µM) was 0.448; in assay [3] (first compound 8 µM), 0.354; in assay [4] (first compound 0.08 µM), 0.157; in assay [4] (first compound 0.8 µM) it was 0.365; in assay [4] (first compound 2.53 µM) it was 0.236; in assay [4] (first compound 8 µM) it was 0.214.
